Values after ≈ are worked out from the molar mass of the structure shown. Where two headings read alike, the source gives them in different places.
Experiments:
[1] = Equilibrium solubility studies (shaker, HPTLC); type: physicochemical; details: experimental, at 25°C, mean of three
Description: Equilibrium solubility is the most vital physicochemical property that reflects the bioavailability of a compound. […] The equilibrated samples were centrifuged at 5000 r.p.m. (1398 × g) for 10 min to remove any undissolved drug and the supernatant was analyzed using HPTLC at a λmax of 262 nm. All the media were prepared according to the composition reported by Dressman and co-workers.

[2] = Partition coefficient (log P), shake-flask octanol/water; type: physicochemical; details: experimental, 25.0 ± 0.1°C
Description: Lipophilicity is a molecular property of any compound that is vital to discern the extent of distribution in the body. The logarithm of octanol/water partition coefficient, in other words, log P, is the most extensively used parameter to quantify lipophilicity. The value of log P is a valuable predictor to determine the passive transport of drugs through the lipoid membranes of the human body. […] For this, first presaturation of the solvents (octanol and water) was conducted for 24 h. Then, Mgf in a concentration of 5 mg/100 ml was added to the equilibrated mixture. After separation of the equilibrated phases by centrifugation at 10,000 r.p.m. for 5 min, the concentration of the solute was determined in the aqueous phase using HPTLC at a λmax 262 nm for each sample:Equation 1 [drawing 2]

[3] = Determination of log D, aqueous phase pH 7.4; type: physicochemical; details: octanol / physiological buffer (aqueous phase at pH 7.4), experimental
Text: Log D, the logarithm of distribution constant or apparent partition, therefore, is a better descriptor of the lipophilicity of an ionizable compound that is likely to be charged at the physiological pH [26]. This can be determined in a similar manner to log P, but the aqueous phase, instead of being pure water, is adjusted to pH 7.4 using a physiological buffer:Equation 2 [drawing 3]

[4] = In situ single pass intestinal perfusion studies; type: in vivo, Wistar rats; details: both sexes, Wistar, other: in situ single pass perfusion of the jejunum; experimental, rat jejunum, perfusion rate 0.2 ml/min
Description: The in situ single pass intestinal perfusion studies were performed in a manner reported previously by our group in the past. Three unisex Wistar rats (250–280 g) were fasted for at least 24 h prior to the study, while water was provided ad libitum. The animals were procured from University Centre Animal House, after obtaining the requisite approval from Animals Institutional Committee, Chandigarh (PU/IAEC/S/14/104). Anesthesia was induced by an intraperitoneal injection of thiopental sodium in the dose of 50 mg/kg of the body weight of the rats. After making an incision in the abdomen, provisions for inlet and outlet were made at proximal part of the jejunum, 2–4 cm below the ligament of Trietz and about 10 cm distal to the first incision. […] Finally, 1.5 ml of perfusate was added to the ethereal extract and the concentration of Mgf in the mixture was determined using HPTLC technique at 254 nm by applying the principles of Analytical Quality by Design. The value of effective permeability (Peff) was subsequently calculated using Equation 3 [31].Equation 3 [drawing 4]
where Q is the flow rate, Cin and Cout are the respective inlet and outlet concentrations, r is the radius of the intestine and l is the length of the intestine measured after completion of perfusion.

MDR1 transporters = target: T1, MDR1 transporters (Homo sapiens, UniProt P08183); assay: P-gp efflux assay (multidrug resistance direct dye efflux kit), Rhodamine-123 dye; type: cell-based; details: experimental, Caco-2 cells
T1 construct: overexpressed MDR1, MRP1 and BCRP membrane pumps on Caco-2 cells; endogenous in cells; host or cells: Caco-2 cells
T1 sequence (P08183 whole entry): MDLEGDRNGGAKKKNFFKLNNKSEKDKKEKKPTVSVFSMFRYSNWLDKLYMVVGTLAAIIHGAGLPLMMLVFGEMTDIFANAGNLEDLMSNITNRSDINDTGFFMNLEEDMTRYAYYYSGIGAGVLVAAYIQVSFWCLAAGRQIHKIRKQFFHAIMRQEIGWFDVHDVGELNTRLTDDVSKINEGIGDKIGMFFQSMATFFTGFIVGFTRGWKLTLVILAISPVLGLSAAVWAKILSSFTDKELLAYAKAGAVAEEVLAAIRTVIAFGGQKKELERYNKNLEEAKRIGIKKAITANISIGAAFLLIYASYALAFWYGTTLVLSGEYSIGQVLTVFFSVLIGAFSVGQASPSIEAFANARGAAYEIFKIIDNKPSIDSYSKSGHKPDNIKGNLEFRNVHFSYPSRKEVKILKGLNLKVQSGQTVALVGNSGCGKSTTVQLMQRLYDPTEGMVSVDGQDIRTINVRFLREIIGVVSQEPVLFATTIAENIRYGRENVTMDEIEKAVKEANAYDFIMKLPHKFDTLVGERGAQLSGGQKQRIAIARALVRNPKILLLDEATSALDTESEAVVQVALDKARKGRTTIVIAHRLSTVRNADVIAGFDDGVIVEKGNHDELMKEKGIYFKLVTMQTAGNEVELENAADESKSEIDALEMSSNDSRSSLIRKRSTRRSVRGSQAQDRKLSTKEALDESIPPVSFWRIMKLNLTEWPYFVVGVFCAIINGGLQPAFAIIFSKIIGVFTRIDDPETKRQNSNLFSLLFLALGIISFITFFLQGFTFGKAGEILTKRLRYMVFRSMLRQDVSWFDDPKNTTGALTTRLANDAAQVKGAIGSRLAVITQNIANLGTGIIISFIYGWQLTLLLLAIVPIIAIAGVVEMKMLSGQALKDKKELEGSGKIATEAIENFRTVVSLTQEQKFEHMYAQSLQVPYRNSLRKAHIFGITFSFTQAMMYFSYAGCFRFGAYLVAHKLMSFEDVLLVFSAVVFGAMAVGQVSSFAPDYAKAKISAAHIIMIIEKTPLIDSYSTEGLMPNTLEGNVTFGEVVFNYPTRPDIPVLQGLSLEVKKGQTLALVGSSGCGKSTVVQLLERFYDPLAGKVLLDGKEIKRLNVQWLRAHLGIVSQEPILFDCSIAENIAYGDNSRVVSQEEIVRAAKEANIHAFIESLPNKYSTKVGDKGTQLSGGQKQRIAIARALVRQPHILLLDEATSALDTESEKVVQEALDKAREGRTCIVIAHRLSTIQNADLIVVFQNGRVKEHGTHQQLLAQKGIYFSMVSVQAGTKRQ
Description: Furthermore, the multidrug resistance directs dye efflux assay kit (Chemicon® International, CA, USA and Serologicals® Corporations, GA, USA) was employed, in which the Caco-2 cells were loaded with rhodamine 123 (Rh-123) and diethyloxacarbocyanine (DiOC2) dyes in the presence or absence of vinblastine. In order to access the functional activity of the inhibition of overexpressed MDR1, MRP1 and BCRP membrane pumps on Caco-2 cells in the presence of Mgf, the fluorescence intensity was measured in a Tecan fluorescence microplate reader (Tecan Ltd, Männedorf, Switzerland) at an excitation wavelength of 485 nm and an emission wavelength of 530 nm. For the purpose, Caco-2 cells in the concentration of 2.5 × 10^5 were incubated with Rh-123 alone and with vinblastine, and Rh-123-loaded Mgf at 37°C to access the inhibitory activity of Mgf on MDR1 transporters. Likewise, to estimate the ability of Mgf to act as a substrate for BCRP transportors, DiOC2 dye was employed. On the similar heels, Caco-2 cells (2.5 × 10^5) were incubated with DiOC2 alone and with vinblastine, and DiOC2-loaded Mgf at 37°C.

[5] = cited from earlier work
[6] = at 45°C; cited from earlier work
[7] = cited from earlier work; remark: listed apart in the source
P-gp = details: cited from earlier work

- solubility at 72 h ([1]; fasted-state simulated gastric fluid, read-out: Solubility in fasted-state simulated gastric fluid): 140 µg/mL (≈ 331 µM)
- solubility at 72 h ([1]; fasted-state simulated intestinal fluid, fassif, thermodynamic from solid, read-out: Solubility in fasted-state simulated intestinal fluid): 1480 µg/mL (≈ 3500 µM)
- solubility at 72 h ([1]; fed-state simulated intestinal fluid, fessif, thermodynamic from solid, read-out: Solubility in fed-state simulated intestinal fluid): 3980 µg/mL (≈ 9420 µM)
- solubility at 72 h ([1]; thermodynamic from solid, water, read-out: Aqueous solubility): 380 µg/mL (≈ 900 µM)
- logP [2]: -0.65
- logD [3]: -0.79
- effective permeability (Peff) [4]: 16 ×10⁻⁶ cm/s
- P-gp substrate (MDR1 transporters): Yes
Compound: O=c1c2cc(O)c(O)cc2oc2cc(O)c([C@@H]3O[C@H](CO)[C@@H](O)[C@H](O)[C@H]3O)c(O)c12 [mangiferin, (1S)-1,5-Anhydro-1-(1,3,6,7-tetrahydroxy-9-oxo-9H-xanthen-2-yl)-D-glucitol]
- AUC0–t rise in streptozotocin-induced diabetic rats compared with normal rats ([5]; plasma): 2.35 fold
- Cmax rise in streptozotocin-induced diabetic rats compared with normal rats ([5]; plasma): 2.79 fold
- Maximum plasma levels ([5]; rats, oral): 715.04 ± 600.14 ng/mL
- Time of maximum plasma levels after oral intake ([5]; rats, oral): 0.72 h
- Aqueous solubility [6]: 0.25 mg/ml at 45 °C
- log P [7]: -0.09 to -0.36
- P-gp substrate (P-gp): Yes

Reference: article PMC5351510 (Future Science OA, 2017)
